From US11319289B2, “5-hydroxy pyridine-based compound for use as P2X1 and P2X3 receptor antagonist and pharmaceutical composition comprising same” (GWANGJU INSTITUTE OF SCIENCE AND TECHNOLOGY, priority 2017, dated 2022) come the findings set out here.

Read-outs that look alike come from different tables or passages of the source.

A short description of series [1]: Plasma and brain concentrations after intravenous administration of Compound 28 in rats. Type of series: in vivo, SD rats. Conditions: for concentration in the brain tissue: 0.5 hour after intravenous administration of Compound 28; for Kp / concentration at 0.5 h / concentration at 2 h / concentration at 4 h / concentration at 8 h / Kp at 0.5 h / Kp at 2 h / Kp at 4 h / Kp at 8 h: male, rat, iv; for Kp: SD, 5 mg/kg, after i.v. Compound 28, over the time points of Table 6, read-out: brain to plasma ratio; for Kp / Kp at 0.5 h / Kp at 2 h / Kp at 4 h / Kp at 8 h: brain/plasma; for concentration at 0.5 h / Kp at 0.5 h: 0.5 hr after i.v. Compound 28 5 mg/kg; for concentration at 0.5 h / concentration at 2 h / concentration at 4 h / concentration at 8 h / Kp at 0.5 h / Kp at 2 h / Kp at 4 h / Kp at 8 h: rats, mean±SD; for concentration at 2 h / Kp at 2 h: 2 hr after i.v. Compound 28 5 mg/kg; for concentration at 4 h / Kp at 4 h: 4 hr after i.v. Compound 28 5 mg/kg; for concentration at 8 h / Kp at 8 h: 8 hr after i.v. Compound 28 5 mg/kg; for Kp at 0.5 h / Kp at 2 h / Kp at 4 h / Kp at 8 h: read-out: Brain to plasma ratio. As to the method:
7 to 8-weeks old male SD rats (weight of 250 to 290 g) were purchased from SAMTACO (Osan, […], South Korea) and given commercial rat feed (SAMTACO, Osan, Kyungki-Do, South Korea) and water to be consumed freely. 3 rats were housed per each cage at a temperature of 23±2° C. and a relative humidity of 50 to 60% under light-darkness cycles of 12±12 hours. The rats were allowed to acclimate to these conditions for at least one week before the experiments was carried out. The rats were fasted for 12 hours before the experiment and given the tap water to be consumed freely. Compound 28 was administered to the caudal vein at a dose of 5 mg/kg. At 0.5, 2, 4 and 8 hours after intravenous administration, each animal was sacrificed by cervical dislocation. Blood samples were centrifuged at 12,000 rpm for 5 minutes and immediately stored at […] until analysis. After collecting the blood samples, the brains were harvested. Then, the brain tissues were accurately weighed and homogenized with 4-fold volumes of distilled water (IKA T10 basic homogenizer, IKA, Staufen, Germany). The homogenized brain samples were centrifuged at 12,000 rpm for 10 minutes and stored at −20° C. until analysis of 500 μl aliquots. Quantification of the samples was performed using an LC-MS/MS system. The HPLC system is composed of an Agilent 1290 series rapid resolution LC system that includes a binary pump (model: G4220A), an autosampler (model: G4226A) and a column oven (model: G1316C). Mass spectrometer analysis was performed using a Sciex 4000 Q-Trap® mass spectrometer (Applied Biosystems Sciex, Toronto, Ontario, Canada) equipped with an electrospray ionization source. Data acquisition and quantification were performed using the Analyst software version 1.6 from AB SCIEX, and chromatographic separations were performed using Gemini NX C18 (2.0×100 mm, 3 μm, Phenomenex, USA). The mobile phase consisted of ACN (0.1% formic acid) and water (0.1% formic acid) (50:50, v/v). The flow rate was 0.25 mL/min, and the injection volume was set at 5 μL. Mass spectrometry was optimized and performed using a multiple reaction monitoring (MRM) scan in cation mode. The m/z transition was set from 392.1 to 360.2 for Compound 28 and from 378.2 to 360.2 for Compound 29. Preparation of plasma and brain homogenous samples includes protein precipitation with acetonitrile. In 1.5 mL polyethylene microtubes, 5 μL of IS (cimetidine, 10 μg/ml) was added to 50 μL of plasma or tissue homogenate. Subsequently, 150 μl of acetonitrile (extraction solvent) was added to the tube. After vortexing for 30 seconds, the mixture was centrifuged for 5 minutes at 12,000 rpm. 10 μl of supernatant was injected directly into the HPLC column.

Series [2] concerns rats. Briefly: Behavioral test (righting, placing-stepping, pinna and corneal reflexes). Type of series: in vivo, rat. Conditions: maximum dose, intrathecal or intravenous administration. As to the method: 4-1. Behavioral Efficacy Test Method
Additional rats received the highest doses of drugs used to evaluate behavioral changes at 5, 10, 20, 30, 40, 50, and 60 min after intrathecal or intravenous administration to caudal vein. Motor functions were examined using the righting and placing-stepping reflexes. The righting reflex was evaluated by an immediate coordinated twisting of the body to an upright position when placing the rat horizontally with its back on the table. The placing-stepping reflex was induced by drawing the dorsum of hind paw across the edge of the table. Rats normally attempt to put their paws forward into a position for walking. Pinna and corneal reflexes were also assessed and judged as present or absent. Other abnormal behaviors, such as serpentine movement or tremors, were also evaluated.

The mark [3] stands for this setting: brain, read-out: Brain concentration.
The mark [4] stands for this setting: plasma, read-out: Plasma concentration.

With `CCCc1nc(Cc2cccc(Oc3ccccc3)c2)c(C)c(C(=O)OC)c1O` [Compound 28, Methyl 3-hydroxy-5-methyl-6-(3-phenoxybenzyl)-2-propylisonicotinate], in series [1] (0.5 hour after i.v. Compound 28), the “brain concentration of Compound 28 relative to Compound 29” value came to 50 times. For the same compound, in series [1], the “concentration in the brain tissue” value is listed as 1.11 μg/g tissue, the Kp fell in the range of 1.13 to 1.79, the Kp at 0.5 h was determined as 1.79 ± 0.44 and the Kp at 2 h worked out at 1.13 ± 0.25. Moreover, in series [1], the Kp at 4 h was 0.94 ± 0.21 and the Kp at 8 h came out at 1.19 ± 0.41. In addition, in series [1] (setting [3]), the concentration at 0.5 h came to 1110 ± 360 ng/g, the concentration at 2 h was found to be 90 ± 10 ng/g, the concentration at 4 h came out at 50 ± 10 ng/g and the concentration at 8 h turned out to be 30 ± 10 ng/g. Moreover, in series [1] (setting [4]), the concentration at 0.5 h was 620 ± 140 ng/mL, the concentration at 2 h came to 80 ± 20 ng/mL, the concentration at 4 h was 60 ± 10 ng/mL and the concentration at 8 h came to 20 ± 10 ng/mL. Further, in series [2], the abnormal behavior changes result is on record as “no obvious abnormal behavior changes were observed”; the “pinna and corneal reflexes” value is reported as “present”; the “righting and position-stepping reflexes” value is “normal”.
On to `CCCc1nc(Cc2cccc(Oc3ccccc3)c2)c(C)c(C(=O)O)c1O` [Compound 29, 3-Hydroxy-5-methyl-6-(3-phenoxybenzyl)-2-propylisonicotinic acid], for which, in series [1], the “concentration in the brain tissue” value is on record as 0.022 μg/g tissue, the Kp was less than 0.25, the Kp at 0.5 h came to 0.24 ± 0.13 and the Kp at 2 h is 0.08 ± 0.02. Also, in series [1], the Kp at 4 h was 0.05 ± 0.03 and the Kp at 8 h was determined as 0.1 ± 0.12. Besides, in series [1] (setting [3]), the concentration at 0.5 h amounted to 22 ± 3 ng/g, the concentration at 2 h came to 2 ± 1 ng/g, the concentration at 4 h was determined as 1 ng/g and the concentration at 8 h came to 1 ± 1 ng/g. For the same compound, in series [1] (setting [4]), the concentration at 0.5 h stood at 110 ± 50 ng/mL, the concentration at 2 h came to 30 ng/mL, the concentration at 4 h worked out at 20 ± 10 ng/mL and the concentration at 8 h stood at 10 ng/mL. Also, in series [2], the abnormal behavior changes result was “no obvious abnormal behavior changes were observed”; the “pinna and corneal reflexes” value is recorded as “present”; the “righting and position-stepping reflexes” value is reported as “normal”.
